ChEMBL document CHEMBL1136396, “Discovery of 3-amino-4-chlorophenyl P1 as a novel and potent benzamidine mimic via solid-phase synthesis of an isoxazoline library” (Bioorg Med Chem Lett, 2003)

target: T1, Coagulation factor X (Homo sapiens, UniProt P00742); assay: Binding affinity against Coagulation factor X
T1 sequence (P00742 41-179 limits assumed): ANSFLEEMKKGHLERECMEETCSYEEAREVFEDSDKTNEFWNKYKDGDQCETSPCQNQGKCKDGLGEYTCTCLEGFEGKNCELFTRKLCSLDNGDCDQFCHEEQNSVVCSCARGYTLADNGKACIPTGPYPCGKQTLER
T1 sequence (P00742 235-488 limits assumed): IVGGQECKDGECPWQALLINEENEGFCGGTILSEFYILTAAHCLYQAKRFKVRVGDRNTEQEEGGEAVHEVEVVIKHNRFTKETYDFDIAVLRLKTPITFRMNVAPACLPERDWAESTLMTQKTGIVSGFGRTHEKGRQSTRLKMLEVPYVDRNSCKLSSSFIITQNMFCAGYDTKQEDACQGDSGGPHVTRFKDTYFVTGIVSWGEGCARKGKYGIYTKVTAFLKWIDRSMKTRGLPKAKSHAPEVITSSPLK

Row | Ki | Structure (SMILES)
1 | 0.13 µM | Nc1cc(C2=NOC(C(=O)Nc3ccc(-c4ccccc4S(N)(=O)=O)cc3)C2)ccc1Cl (configuration not stated)

target: T1, Coagulation factor X; assay: Binding affinity against the coagulation factor X

Row | Ki | Structure (SMILES)
2 | 4.1 µM | NS(=O)(=O)c1ccccc1-c1ccc(NC(=O)C2CC(c3ccc(Br)cc3)=NO2)cc1 (configuration not stated)
3 | 1 µM | NS(=O)(=O)c1ccccc1-c1ccc(NC(=O)C2CC(c3ccc(Cl)cc3)=NO2)cc1 (configuration not stated)
4 | 7.8 µM | NS(=O)(=O)c1ccccc1-c1ccc(NC(=O)C2CC(c3cccc(F)c3)=NO2)cc1 (configuration not stated)
5 | 7.5 µM | COc1cccc(C2=NOC(C(=O)Nc3ccc(-c4ccccc4S(N)(=O)=O)cc3)C2)c1 (configuration not stated)
6 | 4.6 µM | NS(=O)(=O)c1ccccc1-c1ccc(NC(=O)C2CC(c3ccc(F)c(F)c3)=NO2)cc1 (configuration not stated)
7 | 4.5 µM | CCCCCC1=NOC(C(=O)Nc2ccc(-c3ccccc3S(N)(=O)=O)cc2)C1 (configuration not stated)
8 | 5.9 µM | NS(=O)(=O)c1ccccc1-c1ccc(NC(=O)C2CC(c3cccc(Cl)c3)=NO2)cc1 (configuration not stated)
9 | 1.9 µM | NS(=O)(=O)c1ccccc1-c1ccc(NC(=O)C2CC(c3ccc(I)cc3)=NO2)cc1 (configuration not stated)

target: T1, Coagulation factor X; assay: Binding affinity against the Factor Xa (FXa)

Row | Structure (SMILES) | Ki
10 | NS(=O)(=O)c1ccccc1-c1ccc(NC(=O)C2CC(c3ccc4c(c3Cl)OCO4)=NO2)cc1 (configuration not stated) | 1.7 µM
11 | NS(=O)(=O)c1ccccc1-c1ccc(NC(=O)C2CC(c3ccc(-c4ccccc4)cc3)=NO2)cc1 (configuration not stated) | 1.1 µM
12 | NS(=O)(=O)c1ccccc1-c1ccc(NC(=O)C2CC(c3cccc4ccccc34)=NO2)cc1 (configuration not stated) | > 30 µM
13 | NS(=O)(=O)c1ccccc1-c1ccc(NC(=O)C2CC(c3ccc4c(c3[N+](=O)[O-])OCO4)=NO2)cc1 (configuration not stated) | 2.4 µM
14 | CCCCCCCCCCC1=NOC(C(=O)Nc2ccc(-c3ccccc3S(N)(=O)=O)cc2)C1 (configuration not stated) | 17 µM
15 | NS(=O)(=O)c1ccccc1-c1ccc(NC(=O)C2CC(c3cc(I)c(O)c(I)c3)=NO2)cc1 (configuration not stated) | > 30 µM
16 | NS(=O)(=O)c1ccccc1-c1ccc(NC(=O)C2CC(c3c(O)ccc4ccccc34)=NO2)cc1 (configuration not stated) | > 30 µM
17 | COc1ccc2ccccc2c1C1=NOC(C(=O)Nc2ccc(-c3ccccc3S(N)(=O)=O)cc2)C1 (configuration not stated) | > 3 µM
18 | NS(=O)(=O)c1ccccc1-c1ccc(NC(=O)C2CC(CCc3ccccc3)=NO2)cc1 (configuration not stated) | > 30 µM
19 | NS(=O)(=O)c1ccccc1-c1ccc(NC(=O)C2CC(/C=C/c3ccccc3)=NO2)cc1 (configuration not stated) | 2.3 µM
20 | CCCCCCOc1ccccc1C1=NOC(C(=O)Nc2ccc(-c3ccccc3S(N)(=O)=O)cc2)C1 (configuration not stated) | 1.8 µM
21 | NS(=O)(=O)c1ccccc1-c1ccc(NC(=O)C2C[C+](c3ccc(Cl)c([N+](=O)[O-])c3)[N-]O2)cc1 (configuration not stated) | > 30 µM
22 | NS(=O)(=O)c1ccccc1-c1ccc(NC(=O)C2CC(c3cccs3)=NO2)cc1 (configuration not stated) | 1.3 µM
23 | NS(=O)(=O)c1ccccc1-c1ccc(NC(=O)C2CC(/C=C/c3ccco3)=NO2)cc1 (configuration not stated) | 2.3 µM
24 | CO[C@@H]1[C@H]2OC(C)(C)O[C@H]2O[C@H]1C1=NOC(C(=O)Nc2ccc(-c3ccccc3S(N)(=O)=O)cc2)C1 (some centres not stated) | > 30 µM
25 | NS(=O)(=O)c1ccccc1-c1ccc(NC(=O)C2CC(c3ccccc3Cl)=NO2)cc1 (configuration not stated) | 1.7 µM
26 | COc1ccc(C2=NOC(C(=O)Nc3ccc(-c4ccccc4S(N)(=O)=O)cc3)C2)cc1 (configuration not stated) | 0.7 µM
27 | NS(=O)(=O)c1ccccc1-c1ccc(NC(=O)C2CC(c3ccc4ccccc4c3)=NO2)cc1 (configuration not stated) | 20 µM
28 | COc1ccc(Br)cc1C1=NOC(C(=O)Nc2ccc(-c3ccccc3S(N)(=O)=O)cc2)C1 (configuration not stated) | > 30 µM

Second part, the molecule after the results:

Row | Ki | Structure (SMILES)
29 | 1.6 µM | NS(=O)(=O)c1ccccc1-c1ccc(NC(=O)C2CC(c3ccc(C(F)F)cc3)=NO2)cc1 (configuration not stated)
30 | > 3 µM | NS(=O)(=O)c1ccccc1-c1ccc(NC(=O)C2CC(c3cccc(O)c3)=NO2)cc1 (configuration not stated)
31 | 22 µM | NS(=O)(=O)c1ccccc1-c1ccc(NC(=O)C2CC(c3ccc(O)cc3)=NO2)cc1 (configuration not stated)
32 | > 30 µM | NS(=O)(=O)c1ccccc1-c1ccc(NC(=O)C2CC(c3cccc(Br)c3)=NO2)cc1 (configuration not stated)
33 | 11 µM | NS(=O)(=O)c1ccccc1-c1ccc(NC(=O)C2CC(c3ccccc3)=NO2)cc1 (configuration not stated)
34 | 1.7 µM | NS(=O)(=O)c1ccccc1-c1ccc(NC(=O)C2CC(c3ccc(Cl)cc3Cl)=NO2)cc1 (configuration not stated)
35 | 2.7 µM | NS(=O)(=O)c1ccccc1-c1ccc(NC(=O)C2CC(c3ccc(Cl)c(Cl)c3)=NO2)cc1 (configuration not stated)
36 | 0.49 µM | NS(=O)(=O)c1ccccc1-c1ccc(NC(=O)C2CC(c3ccc4c(c3)OCO4)=NO2)cc1 (configuration not stated)
37 | 17 µM | NS(=O)(=O)c1ccccc1-c1ccc(NC(=O)C2CC(c3cccc(C(F)(F)F)c3)=NO2)cc1 (configuration not stated)
38 | 2.5 µM | NS(=O)(=O)c1ccccc1-c1ccc(NC(=O)C2CC(c3ccc(Cl)c(F)c3)=NO2)cc1 (configuration not stated)
39 | 20 µM | COc1cc(C2=NOC(C(=O)Nc3ccc(-c4ccccc4S(N)(=O)=O)cc3)C2)ccc1O (configuration not stated)
40 | 2.1 µM | Cc1ccc(C2=NOC(C(=O)Nc3ccc(-c4ccccc4S(N)(=O)=O)cc3)C2)cc1 (configuration not stated)
41 | > 30 µM | NS(=O)(=O)c1ccccc1-c1ccc(NC(=O)C2CC(c3cccc(C(=O)O)c3)=NO2)cc1 (configuration not stated)
42 | 10 µM | NS(=O)(=O)c1ccccc1-c1ccc(NC(=O)C2CC(c3cccc(I)c3)=NO2)cc1 (configuration not stated)
